In patent publication US10441576B2, “Substituted 1,2-dihydro-3H pyrrolo[1,2-c]imidazol-3 one antibacterials” (priority 2015, dated 2019):
Values after ≈ are worked out from the molar mass of the structure shown.

What was measured:
Assay type in all cases: cell-based
[1] = system: wild-type E. coli A-1261; assay: MIC against E. coli A-1261 in the absence or presence of alkaline phosphatase or esterase
Protocol: (§1) Minimal Inhibitory Concentrations (MICs; mg/L) were determined in cation-adjusted Mueller-Hinton Broth by a microdilution method following the description given in “Methods for Dilution Antimicrobial Susceptibility Tests for Bacteria that Grow Aerobically”, Approved standard, 7th ed., Clinical and Laboratory Standards Institute (CLSI) Document M7-A7, Wayne, Pa., USA (2006).
All Example compounds were tested against wild-type E. coli A-1261 in the absence of alkaline phosphatase or esterase, in the presence of an alkaline phosphatase and in the presence of an esterase. The corresponding antibacterial test results are given in Table 2 hereafter (MICs in mg/L).

[2] = system: P. aeruginosa ATCC27853; assay: Bacterial growth minimal inhibitory concentration (microdilution, cation-adjusted Mueller-Hinton Broth); conditions: Pseudomonas aeruginosa, quinolone-sensitive strain
Protocol: as §1
(§2) All Reference Example compounds were tested against several Gram-negative bacteria. […] The corresponding antibacterial test results are given in Table 1 hereafter (MICs in mg/L).

[3] = system: E. coli ATCC25922; assay: as above; conditions: Escherichia coli, quinolone-sensitive strain
Protocol: as §1, §2

[4] = system: K. pneumoniae A-651; assay: as above; conditions: Klebsiella pneumoniae, A651; multiply resistant strain (in particular quinolone-resistant)
Protocol: as §1, §2

[5] = system: wild-type E. coli A-1261; assay: as above; conditions: Escherichia coli, quinolone-sensitive strain
Protocol: as §1, §2

[6] = Escherichia coli; alkaline phosphatase 2 i.U./mL; read-out: MIC for E. coli A-1261 In the presence of an alkaline phosphatase (2 i.U./mL)
[7] = Escherichia coli; esterase 10 i.U./mL; read-out: MIC for E. coli A-1261 In the presence of an esterase (10 i.U./mL)
[8] = Escherichia coli; read-out: MIC for E. coli A-1261 In the absence of alkaline phosphatase or esterase
[9] = Escherichia coli, read-out: MIC for E. coli A-1261 In the absence of alkaline phosphatase or esterase
[10] = Escherichia coli, read-out: MIC for E. coli A-1261 In the presence of an alkaline phosphatase (2 i.U./mL)
[11] = Escherichia coli, read-out: MIC for E. coli A-1261 In the presence of an esterase (10 i.U./mL)

Work on `C[C@@](CCN1Cc2cc(C#CC#CC3(COC(=O)CN4CCOCC4)CC3)cn2C1=O)(C(=O)NO)S(C)(=O)=O` [Example 1, (R)-(1-((2-(4-(hydroxyamino)-3-methyl-3-(methylsulfonyl)-4-oxobutyl)-3-oxo-2,3-dihydro-1H-pyrrolo[1,2-c]imidazol-6-yl)buta-1,3-diyn-1-yl)cyclopropyl)methyl 2-morpholinoacetate] yielded an MIC [1, 6] of 1 µg/mL, an MIC [1, 7] of 0.25 µg/mL and an MIC [1, 8] of 2 µg/mL.
Compound `C[C@@](CCN1Cc2cc(C#CC#CC3(CO)CC3)cn2C1=O)(C(=O)NOP(=O)(O)O)S(C)(=O)=O.N` [Example 7, mono-ammonium (R)-((4-(6-((1-(hydroxymethyl)cyclopropyl)buta-1,3-diyn-1-yl)-3-oxo-1H-pyrrolo[1,2-c]imidazol-2(3H)-yl)-2-methyl-2-(methylsulfonyl)butanamido)oxy)phosphonate] has an MIC [1, 6] of 1 µg/mL, an MIC [1, 7] of 4 µg/mL and an MIC [1, 8] of 4 µg/mL.
For `C[C@@](CCN1Cc2cc(C#CC#C[C@H]3C[C@@H]3CO)cn2C1=O)(C(=O)NO)S(C)(=O)=O` [RE2, (R)—N-hydroxy-4-(6-(((1S,2S)-2-(hydroxymethyl)cyclopropyl)buta-1,3-diyn-1-yl)-3-oxo-1H-pyrrolo[1,2-c]imidazol-2(3H)-yl)-2-methyl-2-(methylsulfonyl)butanamide], the MIC [2] was 0.25 µg/mL (≈ 0.577 µM), the MIC [3] was 0.25 µg/mL (≈ 0.577 µM) and the MIC [4] was 0.25 µg/mL (≈ 0.577 µM). The MIC [5] was 0.125 µg/mL (≈ 0.288 µM).
“(R)-(1-((2-(4-(hydroxyamino)-3-methyl-3-(methylsulfonyl)-4-oxobutyl)-3-oxo-2,3-dihydro-1H-pyrrolo[1,2-c]imidazol-6-yl)buta-1,3-diyn-1-yl)cyclopropyl)methyl hydrogen sulfate [Example 8]” was tested, and the “MIC for E. coli A-1261 In the absence of alkaline phosphatase or esterase” value ([1]; absence of alkaline phosphatase or esterase) was 2 µg/mL, the “MIC for E. coli A-1261 In the presence of an alkaline phosphatase (2 i.U./mL)” value ([1]; alkaline phosphatase 2 i.U./mL) was 2 µg/mL and the “MIC for E. coli A-1261 In the presence of an esterase (10 i.U./mL)” value ([1]; esterase 10 i.U./mL) was 2 µg/mL.
`C[C@@](CCN1Cc2cc(C#CC#C[C@H]3C[C@]3(F)CO)cn2C1=O)(C(=O)NO)S(C)(=O)=O` [RE3, (R)-4-(6-(((1R,2R)-2-fluoro-2-(hydroxymethyl)cyclopropyl)buta-1,3-diyn-1-yl)-3-oxo-1H-pyrrolo[1,2-c]imidazol-2(3H)-yl)-N-hydroxy-2-methyl-2-(methylsulfonyl)butanamide] was tested, and the MIC [2] was 0.5 µg/mL (≈ 1.11 µM), the MIC [3] was 0.25 µg/mL (≈ 0.554 µM) and the MIC [4] was 0.5 µg/mL (≈ 1.11 µM). For the same compound, the MIC [5] was 0.25 µg/mL (≈ 0.554 µM).
Compound `C[C@@](CCN1Cc2cc(C#CC#C[C@H]3C[C@@H]3COC(=O)CCc3ccccc3OP(=O)(O)O)cn2C1=O)(C(=O)NO)S(C)(=O)=O` [Example 5, ((1S,2S)-2-((2-((R)-4-(hydroxyamino)-3-methyl-3-(methylsulfonyl)-4-oxobutyl)-3-oxo-2,3-dihydro-1H-pyrrolo[1,2-c]imidazol-6-yl)buta-1,3-diyn-1-yl)cyclopropyl)methyl 3-(2-(phosphonooxy)phenyl)propanoate] has an MIC [1, 9] of 4 µg/mL, an MIC [1, 10] of 0.25 µg/mL and an MIC [1, 11] of 0.25 µg/mL.
Compound `C[C@@](CCN1Cc2cc(C#CC#CC3(CO)CC3)cn2C1=O)(C(=O)NOC(=O)CCc1ccccc1OP(=O)(O)O)S(C)(=O)=O` [Example 3, (R)-2-(3-((4-(6-((1-(hydroxymethyl)cyclopropyl)buta-1,3-diyn-1-yl)-3-oxo-1H-pyrrolo[1,2-c]imidazol-2(3H)-yl)-2-methyl-2-(methylsulfonyl)butanamido)oxy)-3-oxopropyl)phenyl dihydrogen phosphate] has an MIC [1, 9] of 8 µg/mL, an MIC [1, 10] of 0.5 µg/mL and an MIC [1, 11] of 8 µg/mL.
For `C[C@@](CCN1Cc2cc(C#CC#C[C@H]3C[C@]3(F)COP(=O)(O)O)cn2C1=O)(C(=O)NO)S(C)(=O)=O` [Example 6, ((1R,2R)-1-fluoro-2-((2-((R)-4-(hydroxyamino)-3-methyl-3-(methylsulfonyl)-4-oxobutyl)-3-oxo-2,3-dihydro-1H-pyrrolo[1,2-c]imidazol-6-yl)buta-1,3-diyn-1-yl)cyclopropyl)methyl dihydrogen phosphate], the MIC [1, 6] was 0.5 µg/mL, the MIC [1, 7] was over 8 µg/mL and the MIC [1, 8] was over 8 µg/mL.
`C[C@@](CCN1Cc2cc(C#CC#CC3(COC(=O)CCc4ccccc4OP(=O)(O)O)CC3)cn2C1=O)(C(=O)NO)S(C)(=O)=O` [Example 2, (R)-(1-((2-(4-(hydroxyamino)-3-methyl-3-(methylsulfonyl)-4-oxobutyl)-3-oxo-2,3-dihydro-1H-pyrrolo[1,2-c]imidazol-6-yl)buta-1,3-diyn-1-yl)cyclopropyl)methyl 3-(2-(phosphonooxy)phenyl)propanoate] was tested, and the MIC [1, 9] was 8 µg/mL, the MIC [1, 10] was 1 µg/mL and the MIC [1, 11] was 1 µg/mL.
`C[C@@](CCN1Cc2cc(C#CC#CC3(CO)CC3)cn2C1=O)(C(=O)NO)S(C)(=O)=O` [RE1, (R)—N-hydroxy-4-(6-((1-(hydroxymethyl)cyclopropyl)buta-1,3-diyn-1-yl)-3-oxo-1H-pyrrolo[1,2-c]imidazol-2(3H)-yl)-2-methyl-2-(methylsulfonyl)butanamide] was tested, and the MIC [2] was 1 µg/mL (≈ 2.31 µM), the MIC [3] was 0.5 µg/mL (≈ 1.15 µM) and the MIC [4] was 1 µg/mL (≈ 2.31 µM). The MIC [5] was 0.25 µg/mL (≈ 0.577 µM).
In the case of `C[C@@](CCN1Cc2cc(C#CC#C[C@H]3C[C@@H]3COP(=O)(O)O)cn2C1=O)(C(=O)NO)S(C)(=O)=O` [Example 4, ((1S,2S)-2-((2-((R)-4-(hydroxyamino)-3-methyl-3-(methylsulfonyl)-4-oxobutyl)-3-oxo-2,3-dihydro-1H-pyrrolo[1,2-c]imidazol-6-yl)buta-1,3-diyn-1-yl)cyclopropyl)methyl dihydrogen phosphate], the MIC [1, 6] is reported as 0.25 µg/mL, the MIC [1, 7] is reported as over 8 µg/mL and the MIC [1, 8] is reported as over 8 µg/mL.
